In the supplement of paper PMC10307832:

Columns and labels:
Experiment in all cases: relative viability (nuclei count vs DMSO), 5 days (fraction); higher = more cells survive
[1] = compound: C1/C(=C\C2=CC=CS2)/C(=O)/C(=C/C3=CC=CS3)/C1 + CC(C)C[C@H](NC(=O)[C@H](Cc1ccccc1)NC(=O)c1cnccn1)B(O)O [Bortezomib] (partner 0.002 µM)
How it was run: (§1)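 A single step with final 0.05% Triton X-100, 1% formaldehyde and 1 ug/ml Hoechst fixed the cells and stained nuclei 5 days after treatment. Lung cancer cell lines in 1536-well plates had been treated by pin tool the day after seeding with one drug alone or a fixed anchor-drug dose plus five library-drug doses (not always all listed) in √10 steps, and nuclei were counted on 4× images. Relative viability is the ratio of nuclei in treated wells to nuclei in vehicle wells, taken as the median of duplicate plates.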

[2] = compound: C1/C(=C\C2=CC=CS2)/C(=O)/C(=C/C3=CC=CS3)/C1 + C[C@]1(O)C[C@@H](c2nc(-c3ccc4ccc(-c5ccccc5)nc4c3)c3c(N)nccn32)C1 [Linsitinib] (partner 1 µM)
How it was run: as §1

[3] = compound: C1/C(=C\C2=CC=CS2)/C(=O)/C(=C/C3=CC=CS3)/C1 + N=C(N)NC(=N)NCCc1ccccc1 [Phenformin] (partner 250 µM)
How it was run: as §1

Lestaurtinib + Dasatinib = compound: C[C@]12O[C@H](C[C@]1(O)CO)n1c3ccccc3c3c4c(c5c6ccccc6n2c5c31)CNC4=O [Lestaurtinib] + Cc1nc(Nc2ncc(C(=O)Nc3c(C)cccc3Cl)s2)cc(N2CCN(CCO)CC2)n1 [Dasatinib] (partner 0.075 µM)
How it was run: as §1

Cell Line: SK-LU-1
- relative viability ([1]; first compound 0.2 µM): 1.33
- relative viability ([1]; first compound 0.6325 µM): 1.07
- relative viability ([1]; first compound 2 µM): 1.68
- relative viability ([1]; first compound 6.325 µM): 1.13
- relative viability ([1]; first compound 20 µM): 1.28
- relative viability ([2]; first compound 0.2 µM): 1.04
- relative viability ([2]; first compound 0.6325 µM): 1.08
- relative viability ([2]; first compound 2 µM): 1.16
- relative viability ([2]; first compound 6.325 µM): 0.984
- relative viability ([2]; first compound 20 µM): 1.24
- relative viability ([3]; first compound 0.2 µM): 0.634
- relative viability ([3]; first compound 0.6325 µM): 0.56
- relative viability ([3]; first compound 2 µM): 0.672
- relative viability ([3]; first compound 6.325 µM): 0.473
- relative viability ([3]; first compound 20 µM): 0.486
- relative viability (Lestaurtinib + Dasatinib; first compound 0.005 µM): 0.155
- relative viability (Lestaurtinib + Dasatinib; first compound 0.01581 µM): 0.168
- relative viability (Lestaurtinib + Dasatinib; first compound 0.05 µM): 0.146
- relative viability (Lestaurtinib + Dasatinib; first compound 0.1581 µM): 0.161
- relative viability (Lestaurtinib + Dasatinib; first compound 0.5 µM): 0.126

Cell Line: LOU-NH91
- relative viability ([1]; first compound 0.2 µM): 0.472
- relative viability ([1]; first compound 0.6325 µM): 0.528
- relative viability ([1]; first compound 2 µM): 0.459
- relative viability ([1]; first compound 6.325 µM): 0.327
- relative viability ([1]; first compound 20 µM): 0.493
- relative viability ([2]; first compound 0.2 µM): 1
- relative viability ([2]; first compound 0.6325 µM): 0.898
- relative viability ([2]; first compound 2 µM): 1.03
- relative viability ([2]; first compound 6.325 µM): 0.806
- relative viability ([2]; first compound 20 µM): 1.02
- relative viability ([3]; first compound 0.2 µM): 0.696
- relative viability ([3]; first compound 0.6325 µM): 0.757
- relative viability ([3]; first compound 2 µM): 0.843
- relative viability ([3]; first compound 6.325 µM): 0.67
- relative viability ([3]; first compound 20 µM): 0.736
- relative viability (Lestaurtinib + Dasatinib; first compound 0.005 µM): 0.581
- relative viability (Lestaurtinib + Dasatinib; first compound 0.01581 µM): 0.575
- relative viability (Lestaurtinib + Dasatinib; first compound 0.05 µM): 0.415
- relative viability (Lestaurtinib + Dasatinib; first compound 0.1581 µM): 0.397
- relative viability (Lestaurtinib + Dasatinib; first compound 0.5 µM): 0.372

Cell Line: NCI-H1299
- relative viability ([1]; first compound 0.2 µM): 1.07
- relative viability ([1]; first compound 0.6325 µM): 1.05
- relative viability ([1]; first compound 2 µM): 0.96
- relative viability ([1]; first compound 6.325 µM): 0.898
- relative viability ([1]; first compound 20 µM): 1.03
- relative viability ([2]; first compound 0.2 µM): 1.02
- relative viability ([2]; first compound 0.6325 µM): 1.04
- relative viability ([2]; first compound 2 µM): 0.933
- relative viability ([2]; first compound 6.325 µM): 0.789
- relative viability ([2]; first compound 20 µM): 0.956

Cell Line: ChaGo-K-1
- relative viability ([1]; first compound 0.2 µM): 0.998
- relative viability ([1]; first compound 0.6325 µM): 0.934
- relative viability ([1]; first compound 2 µM): 0.967
- relative viability ([1]; first compound 6.325 µM): 0.559
- relative viability ([1]; first compound 20 µM): 0.517
- relative viability ([3]; first compound 0.2 µM): 0.517
- relative viability ([3]; first compound 0.6325 µM): 0.493
- relative viability ([3]; first compound 2 µM): 0.459
- relative viability ([3]; first compound 6.325 µM): 0.3
- relative viability ([3]; first compound 20 µM): 0.271
- relative viability (Lestaurtinib + Dasatinib; first compound 0.005 µM): 0.654
- relative viability (Lestaurtinib + Dasatinib; first compound 0.01581 µM): 0.601
- relative viability (Lestaurtinib + Dasatinib; first compound 0.05 µM): 0.552
- relative viability (Lestaurtinib + Dasatinib; first compound 0.1581 µM): 0.547
- relative viability (Lestaurtinib + Dasatinib; first compound 0.5 µM): 0.292

Cell Line: NCI-H2170
- relative viability ([3]; first compound 0.2 µM): 0.466
- relative viability ([3]; first compound 0.6325 µM): 0.484
- relative viability ([3]; first compound 2 µM): 0.426
- relative viability ([3]; first compound 6.325 µM): 0.405
- relative viability ([3]; first compound 20 µM): 0.408
- relative viability (Lestaurtinib + Dasatinib; first compound 0.005 µM): 0.493
- relative viability (Lestaurtinib + Dasatinib; first compound 0.01581 µM): 0.551
- relative viability (Lestaurtinib + Dasatinib; first compound 0.05 µM): 0.466
- relative viability (Lestaurtinib + Dasatinib; first compound 0.1581 µM): 0.364
- relative viability (Lestaurtinib + Dasatinib; first compound 0.5 µM): 0.376
